Each compound was assayed against GST tagged truncated human mutant G2019S LRRK2 (Homo sapiens (Human), UniProt Q5S007, G2019S) (assay: LRRK2 Km ATP LanthaScreen Assay). Details: G2019S LRRK2, 134 μM ATP (Km ATP), mean values.
Format: biochemical
In short: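 Enzyme (GST-tagged, truncated) was preincubated with compound for 15 min at RT in 50 mM Tris pH 8.5, 10 mM MgCl2, 0.01% Brij-35, 1 mM EGTA, 2 mM DTT and 0.05 mM orthovanadate. Fluorescein-LRRKtide and 134 μM ATP (Km) were then added for 90 min. EDTA and Tb-anti-pERM antibody stopped the reaction; the TR-FRET 520/495 ratio gave 4-parameter IC50s, reported as mean pIC50.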

Chain of GST tagged truncated human mutant G2019S LRRK2 (Q5S007 970-2527 G2019S): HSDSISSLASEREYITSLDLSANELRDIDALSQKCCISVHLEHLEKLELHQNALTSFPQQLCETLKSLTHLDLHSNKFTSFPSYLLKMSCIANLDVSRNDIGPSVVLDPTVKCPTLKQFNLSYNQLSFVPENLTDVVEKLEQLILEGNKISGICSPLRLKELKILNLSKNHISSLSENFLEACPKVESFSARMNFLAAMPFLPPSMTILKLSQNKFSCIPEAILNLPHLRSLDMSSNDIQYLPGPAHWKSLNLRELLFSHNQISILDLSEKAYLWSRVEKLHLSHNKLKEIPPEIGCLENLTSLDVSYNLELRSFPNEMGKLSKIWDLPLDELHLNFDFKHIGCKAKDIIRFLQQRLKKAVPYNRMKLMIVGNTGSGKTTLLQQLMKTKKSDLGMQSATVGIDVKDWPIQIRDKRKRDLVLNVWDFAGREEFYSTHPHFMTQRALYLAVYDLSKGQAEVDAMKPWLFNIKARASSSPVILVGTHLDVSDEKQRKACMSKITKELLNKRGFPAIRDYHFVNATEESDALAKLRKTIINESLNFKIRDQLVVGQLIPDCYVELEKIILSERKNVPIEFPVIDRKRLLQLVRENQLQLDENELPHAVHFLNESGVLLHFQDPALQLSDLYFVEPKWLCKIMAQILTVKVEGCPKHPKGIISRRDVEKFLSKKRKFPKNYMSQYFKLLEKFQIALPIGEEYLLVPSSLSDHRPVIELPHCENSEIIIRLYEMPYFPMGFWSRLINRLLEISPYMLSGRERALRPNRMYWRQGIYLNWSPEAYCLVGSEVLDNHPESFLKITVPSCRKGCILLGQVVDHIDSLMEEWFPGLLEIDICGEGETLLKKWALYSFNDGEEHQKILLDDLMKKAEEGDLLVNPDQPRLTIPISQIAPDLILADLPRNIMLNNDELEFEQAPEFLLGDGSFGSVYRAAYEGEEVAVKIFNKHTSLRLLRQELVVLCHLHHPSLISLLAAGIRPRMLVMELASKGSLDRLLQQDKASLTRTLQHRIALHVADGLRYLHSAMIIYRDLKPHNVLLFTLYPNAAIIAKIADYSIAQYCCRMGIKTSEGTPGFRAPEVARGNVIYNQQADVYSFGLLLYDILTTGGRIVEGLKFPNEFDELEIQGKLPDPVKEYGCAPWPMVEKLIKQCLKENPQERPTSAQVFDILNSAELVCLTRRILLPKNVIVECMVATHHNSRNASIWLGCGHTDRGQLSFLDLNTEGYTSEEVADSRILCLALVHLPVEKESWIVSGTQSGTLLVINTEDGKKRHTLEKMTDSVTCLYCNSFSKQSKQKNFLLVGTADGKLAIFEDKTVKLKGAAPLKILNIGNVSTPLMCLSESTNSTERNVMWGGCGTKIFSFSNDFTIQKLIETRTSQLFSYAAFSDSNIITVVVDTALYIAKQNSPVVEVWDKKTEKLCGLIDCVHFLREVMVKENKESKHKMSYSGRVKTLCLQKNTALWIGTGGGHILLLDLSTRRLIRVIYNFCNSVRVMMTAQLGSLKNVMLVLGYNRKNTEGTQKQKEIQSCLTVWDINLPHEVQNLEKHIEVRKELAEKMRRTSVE

Row | Structure (SMILES) | LRRK2 pIC50
1 | CC1(O)CCC(c2cc3nc(Nc4cnn(C5CC5)c4)ncc3cc2Cl)CC1 (stereo not drawn) [Ex-1.18, cis-or trans-4-(6-chloro-2-((1-cyclopropyl-1H-pyrazol-4-yl)amino)quinazolin-7-yl)-1-methylcyclohexan-1-ol] | 8.59
2 | COCC12CC(n3cc(Nc4ncc5cc(Cl)c(C6CCN(C7(C)COC7)CC6)cc5n4)cn3)(C1)C2 [Ex-2.3, 6-chloro-N-(1-(3-(methoxymethyl)bicyclo[1.1.1]pentan-1-yl)-1H-pyrazol-4-yl)-7-(1-(3-methyloxetan-3-yl)piperidin-4-yl)quinazolin-2-amine] | >9.20
3 | COC(C)(C)Cn1ncc(Nc2ncc3cc(Cl)c(C4CCN(C5COC5)CC4)cc3n2)c1Cl [Ex-2.10, 6-chloro-N-[5-chloro-1-(2-methoxy-2-methylpropyl)-1H-pyrazol-4-yl]-7-[1-(oxetan-3-yl)piperidin-4-yl]quinazolin-2-amine] | >9.20
4 | CC(C)(Cn1ncc(Nc2ncc3cc(Cl)c(C4CCN(C5COC5)CC4)cc3n2)c1Cl)OC(F)F [Ex-2.13, 6-chloro-N-{5-chloro-1-[2-(difluoromethoxy)-2-methylpropyl]-1H-pyrazol-4-yl}-7-[1-(oxetan-3-yl)piperidin-4-yl]quinazolin-2-amine] | 9.15
5 | COC(C)(C)Cn1ncc(Nc2ncc3cc(Cl)c(C4CCN(C5COC5)CC4)cc3n2)c1C [Ex-2.14, 6-chloro-N-[1-(2-methoxy-2-methylpropyl)-5-methyl-1H-pyrazol-4-yl]-7-[1-(oxetan-3-yl)piperidin-4-yl]quinazolin-2-amine] | 9.17
6 | Cc1c(Nc2ncc3cc(Cl)c(C4CCN(C5COC5)CC4)cc3n2)cnn1CC1(C#N)CC1 [Ex-2.15, 1-{[4-({6-chloro-7-[1-(oxetan-3-yl)piperidin-4-yl]quinazolin-2-yl}amino)-5-methyl-1H-pyrazol-1-yl]methyl}cyclopropane-1-carbonitrile] | >9.20
7 | COC(C)(C)Cn1cc(Nc2ncc3cc(Cl)c(C4CCN(C5COC5)CC4)cc3n2)c(C)n1 [Ex-2.16, 6-chloro-N-[1-(2-methoxy-2-methylpropyl)-3-methyl-1H-pyrazol-4-yl]-7-[1-(oxetan-3-yl)piperidin-4-yl]quinazolin-2-amine] | 8.94
8 | Cc1nn(CC2(C#N)CC2)cc1Nc1ncc2cc(Cl)c(C3CCN(C4COC4)CC3)cc2n1 [Ex-2.17, 1-{[4-({6-chloro-7-[1-(oxetan-3-yl)piperidin-4-yl]quinazolin-2-yl}amino)-3-methyl-1H-pyrazol-1-yl]methyl}cyclopropane-1-carbonitrile] | >9.20
9 | Cc1c(Nc2ncc3cc(Cl)c(C4CCN(C5COC5)CC4)cc3n2)cnn1C(C)(C)C#N [Ex-2.19, 2-[4-({6-chloro-7-[1-(oxetan-3-yl)piperidin-4-yl]quinazolin-2-yl}amino)-5-methyl-1H-pyrazol-1-yl]-2-methylpropanenitrile] | >9.20
10 | Cc1c(Nc2ncc3cc(Cl)c(C4CCN(C5(C)COC5)CC4)cc3n2)cnn1C(C)(C)C#N [Ex-2.20, 2-[4-({6-chloro-7-[1-(3-methyloxetan-3-yl)piperidin-4-yl]quinazolin-2-yl}amino)-5-methyl-1H-pyrazol-1-yl]-2-methylpropanenitrile] | >9.20
11 | Cc1c(Nc2ncc3cc(Cl)c(C4CCN(C5(C)COC5)CC4)cc3n2)cnn1C12CC(C1)C2 [Ex-2.22, N-[1-(bicyclo[1.1.1]pentan-1-yl)-5-methyl-1H-pyrazol-4-yl]-6-chloro-7-[1-(3-methyloxetan-3-yl)piperidin-4-yl]quinazolin-2-amine] | >9.20
12 | COCC12CC(n3ncc(Nc4ncc5cc(Cl)c(C6CCN(C7COC7)CC6)cc5n4)c3C)(C1)C2 [Ex-2.31, 6-chloro-N-{1-[3-(methoxymethyl)bicyclo[1.1.1]pentan-1-yl]-5-methyl-1H-pyrazol-4-yl}-7-[1-(oxetan-3-yl)piperidin-4-yl]quinazolin-2-amine] | >9.20
13 | OC1COCC1n1ncc(Nc2ncc3cc(Cl)c(C4CCN(C5COC5)CC4)cc3n2)c1Cl (centres unmarked) [Ex-2.48, 4-[5-chloro-4-({6-chloro-7-[1-(oxetan-3-yl)piperidin-4-yl]quinazolin-2-yl}amino)-1H-pyrazol-1-yl]oxolan-3-ol] | 8.77
14 | COC(C)(C)C12CC(n3cc(Nc4ncc5cc(Cl)c(C6CCN(C7(C)COC7)CC6)cc5n4)cn3)(C1)C2 [Ex-2.56, 6-chloro-N-{1-[3-(2-methoxypropan-2-yl)bicyclo[1.1.1]pentan-1-yl]-1H-pyrazol-4-yl}-7-[1-(3-methyloxetan-3-yl)piperidin-4-yl]quinazolin-2-amine] | 8.75
15 | CC1(N2CCC(c3cc4nc(Nc5cnn(C67CC(CO)(C6)C7)c5)ncc4cc3Cl)CC2)COC1 [Ex-2.57, {3-[4-({6-chloro-7-[1-(3-methyloxetan-3-yl)piperidin-4-yl]quinazolin-2-yl}amino)-1H-pyrazol-1-yl]bicyclo[1.1.1]pentan-1-yl}methanol] | >9.20
16 | CC1(N2CCC(c3cc4nc(Nc5cnn(C67CC(C(C)(C)O)(C6)C7)c5)ncc4cc3Cl)CC2)COC1 [Ex-2.58, 2-{3-[4-({6-chloro-7-[1-(3-methyloxetan-3-yl)piperidin-4-yl]quinazolin-2-yl}amino)-1H-pyrazol-1-yl]bicyclo[1.1.1]pentan-1-yl}propan-2-ol] | 9.17
17 | CN(C)CC12CC(n3cc(Nc4ncc5cc(Cl)c(C6CCN(C7(C)COC7)CC6)cc5n4)cn3)(C1)C2 [Ex-2.59, 6-chloro-N-(1-{3-[(dimethylamino)methyl]bicyclo [1.1.1]pentan-1-yl}-1H-pyrazol-4-yl)-7-[1-(3-methyloxetan-3-yl)piperidin-4-yl]quinazolin-2-amine] | >9.20
18 | CC1(N2CCC(c3cc4nc(Nc5cnn(C67CC(CN8CC(F)(F)C8)(C6)C7)c5)ncc4cc3Cl)CC2)COC1 [Ex-2.60, 6-chloro-N-(1-{3-[(3,3-difluoroazetidin-1-yl)methyl]bicyclo[1.1.1]pentan-1-yl}-1H-pyrazol-4-yl)-7-[1-(3-methyloxetan-3-yl)piperidin-4-yl]quinazolin-2-amine] | >9.20
19 | Cc1nn(CC(C)(C)O)cc1Nc1ncc2cc(Cl)c(C3CCN(C4COC4)CC3)cc2n1 [Ex-2.61, 1-[4-({6-chloro-7-[1-(oxetan-3-yl)piperidin-4-yl]quinazolin-2-yl}amino)-3-methyl-1H-pyrazol-1-yl]-2-methylpropan-2-ol] | 8.66
20 | Cn1nc(C2CC2)cc1Nc1ncc2cc(Cl)c(C3CCN(C4COC4)CC3)cc2n1 [Ex-2.62, 6-chloro-N-(3-cyclopropyl-1-methyl-1H-pyrazol-5-yl)-7-[1-(oxetan-3-yl)piperidin-4-yl]quinazolin-2-amine] | 7.88
21 | Cc1c(Nc2ncc3cc(Cl)c(C4CCC(C)(O)CC4)cc3n2)cnn1C1CC1 (stereo not drawn) [Ex-2.63, cis- or trans-4-{6-chloro-2-[(1-cyclopropyl-5-methyl-1H-pyrazol-4-yl)amino]quinazolin-7-yl}-1-methylcyclohexan-1-ol] | 8.92
22 | Cc1cc2cnc(Nc3cnn(C4CC4)c3Cl)nc2cc1C1CCC(C)(O)CC1 (stereo not drawn) [Ex-2.64, cis- or trans-4-{2-[(5-chloro-1-cyclopropyl-1H-pyrazol-4-yl)amino]-6-methylquinazolin-7-yl}-1-methylcyclohexan-1-ol] | 9.02
23 | [2H]C([2H])([2H])n1ncc(Nc2ncc3cc(Cl)c(C4CCN(C5(C)COC5)CC4)cc3n2)c1Cl [Ex-2.72, 6-chloro-N-(5-chloro-1-(methyl-d3)-1H-pyrazol-4-yl)-7-(1-(3-methyloxetan-3-yl)piperidin-4-yl)quinazolin-2-amine] | 8.90
24 | CC(C)(O)Cn1ncc(Nc2ncc3cc(Cl)c(C4CCN(C5COC5)CC4)cc3n2)c1Cl [Ex-4.3, 1-(5-chloro-4-((6-chloro-7-(1-(oxetan-3-yl)piperidin-4-yl)quinazolin-2-yl)amino)-1H-pyrazol-1-yl)-2-methylpropan-2-ol] | >9.20
25 | CC1(n2ncc(Nc3ncc4cc(Cl)c(C5CCN(C(F)(F)F)CC5)cc4n3)c2Cl)CC1 [Ex-4.7, 6-chloro-N-(5-chloro-1-(1-methylcyclopropyl)-1H-pyrazol-4-yl)-7-(1-(trifluoromethyl)piperidin-4-yl)quinazolin-2-amine] | 7.74
26 | CC(=O)N1CCC(c2cc3nc(Nc4cnn(C5CC5)c4Cl)ncc3cc2Cl)C[C@@H]1C (some centres unmarked) [Ex-4.8] | 7.39

Same assay, conditions: G2019S LRRK2, 134 μM ATP (Km ATP), mean values; read-out: LRRK2 pIC50 (converted)

Row | Structure (SMILES) | IC50 [nM]
27 | CC1(N2CCC(c3cc4nc(Nc5cnn(C67CC(C6)C7)c5)ncc4cc3Cl)CC2)COC1 [Ex-2.18, N-(1-(bicyclo[1.1.1]pentan-1-yl)-1H-pyrazol-4-yl)-6-chloro-7-(1-(3-methyloxetan-3-yl)piperidin-4-yl)quinazolin-2-amine] | < 0.631
28 | Cc1c(Nc2ncc3cc(Cl)c(C4CCN(C5COC5)CC4)cc3n2)cnn1C12CC(C1)C2 [Ex-2.21, N-[1-(bicyclo[1.1.1]pentan-1-yl)-5-methyl-1H-pyrazol-4-yl]-6-chloro-7-[1-(oxetan-3-yl)piperidin-4-yl]quinazolin-2-amine] | 0.676
29 | COCC12CC(n3ncc(Nc4ncc5cc(Cl)c(C6CCN(C7(C)COC7)CC6)cc5n4)c3C)(C1)C2 [Ex-2.32, 6-chloro-N-{1-[3-(methoxymethyl)bicyclo[1.1.1]pentan-1-yl]-5-methyl-1H-pyrazol-4-yl}-7-[1-(3-methyloxetan-3-yl)piperidin-4-yl] quinazolin-2-amine] | < 0.631

Reference: patent US12540131B2 (Merck Sharp & Dohme LLC, priority 2019, dated 2026)
